pEC50: −log10 of the molar value. Values after ≈ are worked out from the molar mass of the structure shown.

One series has as its system Rhino type 48. In words: Virus inhibition test (MIC). The conditions noted are these: Enterovirus, in vitro, read-out: Minimum inhibitory conc. (MIC). Format: cell-based, rhinovirus type 48.
The nature of the next series: ATH8 cell viability. As to conditions: human, ath8 cells.
The test system of a further series is Polio type 2. The experiment in a line: microbe, parasite or virus in culture. Format: cell-based, poliovirus type 2. As to conditions: Enterovirus C, read-out: Minimum inhibitory conc. (MIC).
Another series concerns Rhino type 37. In words: Virus inhibition test (MIC). The conditions noted are these: Enterovirus, in vitro, read-out: Minimum inhibitory conc. (MIC). Format: cell-based, rhinovirus type 37.
A further series deals with Rhino type 55. In words: Virus inhibition test (MIC). The conditions noted are these: Enterovirus, in vitro, read-out: Minimum inhibitory conc. (MIC). The class given is cell-based, rhinovirus type 55.
In a further series the test system is Echo type B-9. The experiment in a line: Virus inhibition test (MIC). Format: cell-based, echovirus type B-9. The conditions noted are these: Echovirus, in vitro, read-out: Minimum inhibitory conc. (MIC).
The subject of a further series is Rhino type 32. In words: Virus inhibition test (MIC). Format: cell-based, rhinovirus type 32. As to conditions: Enterovirus, in vitro, read-out: Minimum inhibitory conc. (MIC).
Another series deals with Rhino type 16. The experiment in a line: Virus inhibition test (MIC). The class given is cell-based, rhinovirus type 16. The conditions noted are these: Enterovirus, in vitro, read-out: Minimum inhibitory conc. (MIC).
The nature of series [1]: Toxicity control, minimum toxic concentration (MTC). The class given is cell-based. As to conditions: cell density still lower than in the cell control.
The next series deals with Rhino type 3. In words: Virus inhibition test (MIC). The class given is cell-based, rhinovirus type 3. As to conditions: Enterovirus, in vitro, read-out: Minimum inhibitory conc. (MIC).
The next series relates to HIV (HTLV-IIIB). The experiment in a line: microbe, parasite or virus in culture. Format: cell-based.
In another series the test system is Rhino type 26. The experiment in a line: Virus inhibition test (MIC). The class given is cell-based, rhinovirus type 26. The conditions noted are these: Enterovirus, in vitro, read-out: Minimum inhibitory conc. (MIC).

Consider `Cc1cc(CCCCCCCOc2ccc(C3=NCCO3)s2)on1` [Compound A, 5-(7-(5-(4,5-dihydro-2-oxazolyl)-2-thienyl)-oxyheptyl)-3-methyl-isoxazole], for which the MIC in the series with Rhino type 48 worked out at 0.1 mg/L (≈ 0.287 µM); with Polio type 2, 0.1 mg/L (≈ 0.287 µM); with Rhino type 37, 0.03 mg/L (≈ 0.0861 µM); in the series with Rhino type 55, 0.3 mg/L (≈ 0.861 µM); in the series with Echo type B-9, 0.03 mg/L (≈ 0.0861 µM); with Rhino type 32, 1 mg/L (≈ 2.87 µM). The values for the MIC in the series with Rhino type 16, in the series with Rhino type 3 and in the series on Rhino type 26 were 0.3 mg/L (≈ 0.861 µM), 0.03 mg/L (≈ 0.0861 µM) and 0.3 mg/L (≈ 0.861 µM), respectively. Besides, the midpoint of cytotoxicity in the series “ATH8 cell viability”, the CC50, lay at 35 µM. The CC50 at 240 h in “ATH8 cell viability” is 35 µM. Further, the MCC in series [1] was 10 µg/mL. Besides, in the series on HIV (HTLV-IIIB) (ATH8 cells), the “inhibitory effect on HIV-induced cytopathogenicity in ATH8 cells” value is reported as “marked inhibitory effect”. Further, the “ID50/MIC50 (in vitro therapeutic index)” value was 175 in the series on HIV (HTLV-IIIB) (ATH8 cells, day 6-7 after virus inoculation) and 175 in the series on HIV (HTLV-IIIB) (ATH8 cells, day 10 after virus inoculation). The pEC50 in the series on HIV (HTLV-IIIB) (Human immunodeficiency virus 1, IIIB, ATH-8, 168 h, read-out: MIC50) was 6.70.
For `Cc1cc(CCCCCCCOc2csc(C3=NCCO3)c2)on1` [Compound B, 5-(7-(2-(4,5-dihydro-2-oxazolyl)-4-thienyl)oxyheptyl)-3-methyl-isoxazole], the MIC came to 1 mg/L (≈ 2.87 µM) in the series on Rhino type 48; 1 mg/L (≈ 2.87 µM) in the series on Polio type 2; 0.03 mg/L (≈ 0.0861 µM) in the series with Rhino type 37; 0.3 mg/L (≈ 0.861 µM) with Rhino type 55; 1 mg/L (≈ 2.87 µM) in the series on Echo type B-9; 3 mg/L (≈ 8.61 µM) in the series with Rhino type 32. Also, the MIC was 1 mg/L (≈ 2.87 µM) in the series on Rhino type 16, 0.1 mg/L (≈ 0.287 µM) in the series with Rhino type 3 and 1 mg/L (≈ 2.87 µM) with Rhino type 26. In series [1], this compound came in with an MCC of 10 µg/mL.

The CC50 is the concentration that lowers cell viability or growth by half.

(Values after patent US4812472A, “Isoxazole compounds and pharmaceutical compositions containing them for treatment and prophylaxis of retroviruses diseases” (Chemie Linz Akteingesellschaft, priority 1985, dated 1989).)
